# Patent US10738028B2, “Spiro three-membered ring, spiro five-membered ring peptide deformylase inhibitor and use thereof in antibacteria and anti-tumor” (priority 2016, dated 2020)
# Key:
# [1] = due to instability in metabolism in the body; cited from earlier work
# [2] = system: methemoglobin in blood samples of three healthy volunteers; assay: Toxicity on methemoglobin in vitro (whole blood with S9 and NADPH, absorbance at 630 nm); type: cell-based, human; details: 500 μM compound; whole blood + S9 + NADPH; 5 hours at 37° C.
# In short: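 Fresh EDTA whole blood from three healthy volunteers incubated 5 h at 37 °C with human liver S9 (2 mg/mL), NADPH-generating system and compound at 500 μM final. Lysed in 1% Triton X-100; MetHb % from 630 nm absorbance relative to ferricyanide-oxidized blood.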
# [3] = system: methicillin-resistant Staphylococcus aureus (MRSA); assay: MIC, two-fold agar dilution (CLSI), clinical isolates; type: cell-based
# In short: (§1)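 Samples are serially diluted two-fold in agar following CLSI guidance. Plates are then inoculated with the tested strains. The lowest inhibiting concentration is recorded as MIC.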
# [4] = system: Enterococcus faecalis (EFA); assay: as above; type: cell-based
# In short: as §1
# [5] = system: methicillin-sensitive Staphylococcus aureus (MSSA); assay: as above; type: cell-based
# In short: as §1
# [6] = system: methicillin-sensitive Staphylococcus epidermidis (MSSE); assay: as above; type: cell-based
# In short: as §1
# [7] = system: methicillin-resistant Staphylococcus epidermidis (MRSE); assay: as above; type: cell-based
# In short: as §1
# [8] = system: Escherichia coli (including ESBLs, non-ESBLs); assay: as above; type: cell-based
# In short: as §1
# [9] = system: the test strains; assay: MIC against the test strains (strain not given); type: cell-based; details: read-out: MIC (azole amide bioisosteres)
# From the text: 1. The invention adopts the two-fold agar dilution method recommended by the operating procedure of antimicrobial susceptibility testing set by American Clinical and Laboratory Standards Institute (CLSI) to determine the Minimum Inhibitory Concentration (MIC) of the test samples against the tested strains.
# [10] = system: HCT-116 colorectal cancer cell line; assay: CCK-8 proliferation inhibition; type: cell-based; details: Homo sapiens, HCT-116, 72 h, read-out: HCT116 inhibition rate/%
# In short: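 Proliferation over 72 hours of compound treatment was measured with CCK-8 against a 1‰ DMSO control.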
# [11] = system: Streptococcus pneoumoniae (SPN); assay: MIC, two-fold agar dilution (CLSI), clinical isolates; type: cell-based
# In short: as §1
# [12] = system: Enterococcus faecium (EFM); assay: as above; type: cell-based
# In short: as §1
# [13] = system: Moraxella catarrhalis (BCA); assay: as above; type: cell-based
# In short: as §1
# [14] = at a high dose; Clin. Pharmacol. Ther. 2011, 90, 256; cited from earlier work
compound,measurement,setting,value
CCCCC[C@H](CC(=O)NO)C(=O)N[C@H](C(=O)N1CCC[C@H]1CO)C(C)C [Actinonin],activity in vivo,[1],no activity in vivo
"CCCC[C@H](CN(O)C=O)C(=O)N1CC2(CC2)C[C@H]1c1nnc2ccccn12 [Example 13, N—((R)-2-((S)-6-([1,2,4]triazole[4,3-a]pyridin-3-yl)-5-azaspiro[2.4]heptane-5-carbonyl)hexyl)-N-hydroxyamide]",MetHb % (n = 3),[2],1.15 ± 0.06%
same,MIC (anti-bacterial activity),[3]; strain MRSA 14-1,1 µg/mL
same,MIC (anti-bacterial activity),[3]; strain MRSA 14-2,1 µg/mL
same,MIC (anti-bacterial activity),[3]; strain MRSA 14-4,1 µg/mL
same,MIC (anti-bacterial activity),[3]; strain MRSA 14-5,1 µg/mL
same,MIC (anti-bacterial activity),"[3]; strain printed MRSA 14-1 (second line of that name, r23, before MRSE 14-2)",0.5 µg/mL
same,MIC (anti-bacterial activity),[4]; strain EFA 14-1,4 µg/mL
same,MIC (anti-bacterial activity),[4]; strain EFA 14-2,8 µg/mL
same,MIC (anti-bacterial activity),[4]; strain EFA 14-3,8 µg/mL
same,MIC (anti-bacterial activity),[4]; strain EFA 14-5,8 µg/mL
same,MIC (anti-bacterial activity),[5]; strain MSSA 14-1,1 µg/mL
same,MIC (anti-bacterial activity),[5]; strain MSSA 14-2,1 µg/mL
same,MIC (anti-bacterial activity),[5]; strain MSSA 14-3,1 µg/mL
same,MIC (anti-bacterial activity),[5]; strain MSSA 14-4,1 µg/mL
same,MIC (anti-bacterial activity),[6]; strain MSSE 14-1,0.25 µg/mL
same,MIC (anti-bacterial activity),[6]; strain MSSE 14-2,0.5 µg/mL
same,MIC (anti-bacterial activity),[6]; strain MSSE 14-3,0.5 µg/mL
same,MIC (anti-bacterial activity),[6]; strain MSSE 14-4,0.5 µg/mL
same,MIC (anti-bacterial activity),[7]; strain MRSE 14-2,0.5 µg/mL
same,MIC (anti-bacterial activity),[7]; strain MRSE 14-3,0.25 µg/mL
same,MIC (anti-bacterial activity),[7]; strain MRSE 14-4,1 µg/mL
same,MIC (anti-bacterial activity),[8]; strain ECO+ 14-1,2 µg/mL
same,MIC (anti-bacterial activity),[8]; strain ECO+ 14-2,128 µg/mL
same,MIC (anti-bacterial activity),[8]; strain ECO− 14-1,128 µg/mL
same,MIC (anti-bacterial activity),[8]; strain ECO− 14-2,128 µg/mL
same,MIC,[9],0.5 to 2 µg/mL
same,inhibition at 30 µM,[10],13%
"CCCC[C@H](CN(O)C=O)C(=O)N1CCC[C@H]1C(=O)Nc1ccc(F)c[n+]1[O-] [LBM415, reference compound]",MetHb % (n = 3),[2],3.05 ± 0.01%
same,MIC,"[3]; Staphylococcus aureus, MRSA, range over strains, read-out: minimum inhibitory concentration MIC against methicillin-resistant Staphylococcus (MRSA)",0.5 to 1 µg/mL
same,Anti-bacterial activity (MIC),[3]; strain MRSA 15-1,1 µg/mL
same,Anti-bacterial activity (MIC),[3]; strain MRSA 15-2,1 µg/mL
same,Anti-bacterial activity (MIC),[3]; strain MRSA 15-3,1 µg/mL
same,Anti-bacterial activity (MIC),[3]; strain MRSA 15-4,0.5 µg/mL
same,Anti-bacterial activity (MIC),[4]; strain EFA 15-1,2 µg/mL
same,Anti-bacterial activity (MIC),[4]; strain EFA 15-2,2 µg/mL
same,Anti-bacterial activity (MIC),[4]; strain EFA 15-3,2 µg/mL
same,Anti-bacterial activity (MIC),[4]; strain EFA 15-4,2 µg/mL
same,Anti-bacterial activity (MIC),[4]; strain EFA 15-5,2 µg/mL
same,Anti-bacterial activity (MIC),[4]; strain EFA 15-6,128 µg/mL
same,Anti-bacterial activity (MIC),[4]; strain EFA 15-9,128 µg/mL
same,Anti-bacterial activity (MIC),[5]; strain MSSA 15-3,0.5 µg/mL
same,Anti-bacterial activity (MIC),[5]; strain MSSA 15-4,0.5 µg/mL
same,Anti-bacterial activity (MIC),[5]; strain MSSA 15-5,0.5 µg/mL
same,Anti-bacterial activity (MIC),[5]; strain MSSA 15-6,0.5 µg/mL
same,Anti-bacterial activity (MIC),[11]; strain SPN 16-2,2 µg/mL
same,Anti-bacterial activity (MIC),[11]; strain SPN 16-4,2 µg/mL
same,Anti-bacterial activity (MIC),[6]; strain MSSE 15-3,0.06 µg/mL
same,Anti-bacterial activity (MIC),[6]; strain MSSE 15-4,0.5 µg/mL
same,Anti-bacterial activity (MIC),[6]; strain MSSE 15-5,0.06 µg/mL
same,Anti-bacterial activity (MIC),[6]; strain MSSE 15-6,128 µg/mL
same,Anti-bacterial activity (MIC),[7]; strain MRSE 15-1,0.125 µg/mL
same,Anti-bacterial activity (MIC),[7]; strain MRSE 15-2,0.125 µg/mL
same,Anti-bacterial activity (MIC),[7]; strain MRSE 15-3,0.06 µg/mL
same,Anti-bacterial activity (MIC),[7]; strain MRSE 15-7,0.125 µg/mL
same,Anti-bacterial activity (MIC),[12]; strain EFM 15-1,2 µg/mL
same,Anti-bacterial activity (MIC),[12]; strain EFM 15-2,2 µg/mL
same,Anti-bacterial activity (MIC),[12]; strain EFM 15-3,4 µg/mL
same,Anti-bacterial activity (MIC),[12]; strain EFM 15-4,8 µg/mL
same,Anti-bacterial activity (MIC),[12]; strain EFM 15-5,4 µg/mL
same,Anti-bacterial activity (MIC),[12]; strain EFM 15-6,4 µg/mL
same,MIC,"[13]; Moraxella catarrhalis, 7 clinical isolates, range over strains, read-out: Moraxella catarrhalis (n = 7) MIC",0.5 to 2 µg/mL
same,Anti-bacterial activity (MIC),[13]; strain BCA 14-1,2 µg/mL
same,Anti-bacterial activity (MIC),[13]; strain BCA 14-4,2 µg/mL
same,Anti-bacterial activity (MIC),[13]; strain BCA 14-5,1 µg/mL
same,Anti-bacterial activity (MIC),[13]; strain BCA 14-6,2 µg/mL
same,Anti-bacterial activity (MIC),[13]; strain BCA 14-7,0.5 µg/mL
same,Anti-bacterial activity (MIC),[13]; strain BCA 14-8,0.5 µg/mL
same,Anti-bacterial activity (MIC),[13]; strain BCA 14-10,0.5 µg/mL
same,Anti-bacterial activity (MIC),[8]; strain ECO+ 15-1,64 µg/mL
same,Anti-bacterial activity (MIC),[8]; strain ECO+ 15-2,64 µg/mL
same,Anti-bacterial activity (MIC),[8]; strain ECO+ 15-3,64 µg/mL
same,Anti-bacterial activity (MIC),[8]; strain ECO+ 15-4,64 µg/mL
same,Anti-bacterial activity (MIC),[8]; strain ECO− 15-1,64 µg/mL
same,Anti-bacterial activity (MIC),[8]; strain ECO− 15-2,64 µg/mL
same,Anti-bacterial activity (MIC),[8]; strain ECO− 15-3,64 µg/mL
same,Anti-bacterial activity (MIC),[8]; strain ECO− 15-4,64 µg/mL
same,adverse effect in Phase I clinical trial,[14],could cause methemoglobinemia at a high dose
